The target of this test is T1, Tyrosine-protein phosphatase non-receptor type 1 (Homo sapiens, UniProt P18031).
T1 sequence (P18031 whole entry): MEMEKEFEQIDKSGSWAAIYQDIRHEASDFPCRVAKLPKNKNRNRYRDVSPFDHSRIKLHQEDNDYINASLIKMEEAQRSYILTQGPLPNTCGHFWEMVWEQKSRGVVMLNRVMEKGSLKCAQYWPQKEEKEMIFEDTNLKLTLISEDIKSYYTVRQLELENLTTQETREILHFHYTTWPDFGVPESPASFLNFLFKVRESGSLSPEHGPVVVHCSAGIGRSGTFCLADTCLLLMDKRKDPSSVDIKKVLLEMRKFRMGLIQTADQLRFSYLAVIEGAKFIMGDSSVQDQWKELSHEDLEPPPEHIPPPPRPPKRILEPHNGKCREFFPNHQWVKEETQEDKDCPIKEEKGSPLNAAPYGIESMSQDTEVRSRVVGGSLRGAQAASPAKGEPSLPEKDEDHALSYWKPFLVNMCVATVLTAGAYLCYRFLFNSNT
The test is described as follows: Inhibition of human recombinant PTP1B using pNPP substrate at 37 degC measured after 30 mins.
Broadly, the IC50 is the midpoint of a concentration-inhibition curve. For `CCCCOc1cc(OC)c(/C=C2\SC(=O)N(C)C2=O)cc1Br`, the IC50 was found to be 12.1 µM.
`C=CCc1cc(/C=C2\SC(=O)NC2=O)c(OC)cc1OC1CCCCO1` (centres undefined): the IC50 came to 12.2 µM.
Regarding `C=CCN1C(=O)S/C(=C\c2cc(Br)c(OCCCC)cc2OC)C1=O`, the IC50 amounted to 7.9 µM.
On to `COc1cc(OC)c(/C=C2\SC(=O)N(C)C2=O)cc1Br`, for which the IC50 is 22.3 µM.
With `COc1cc(OCC=C(C)C)c(Br)cc1/C=C1\SC(=O)N(C)C1=O` the figure was 8.2 µM; with `COc1cc(OC)c(/C=C2\SC(=O)NC2=O)cc1Br`, 14.2 µM.
Turning to `CCCCN1C(=O)S/C(=C\c2cc(Br)c(OCC=C(C)C)cc2OC)C1=O`, the IC50 turned out to be 12.3 µM.
On to `C=CCc1cc(/C=C2\SC(=O)NC2=O)c(OC)cc1O`, for which the IC50 turned out to be 29.3 µM.
Take `COc1cc(OCC=C(C)C)c(Br)cc1/C=C1\SC(=O)N(C(C)C)C1=O`: the IC50 amounted to 4.6 µM.
Turning to `C=CCc1cc(/C=C2\SC(=O)N(CCCC)C2=O)c(OC)cc1OC1CCCCO1` (centres undefined), the IC50 is 20.6 µM.
Consider `COc1cc(OCC=C(C)C)c(Br)cc1/C=C1\SC(=O)N(CC=C(C)C)C1=O`, for which the IC50 was 10 µM.
With `C=CCc1cc(/C=C2\SC(=O)N(Cc3ccccc3)C2=O)c(OC)cc1O` the figure was 7.2 µM.
As to `C=CCc1cc(/C=C2\SC(=O)N(C)C2=O)c(OC)cc1OC1CCCCO1` (centres undefined), the IC50 is > 30 µM.
For the molecule `COc1cc(OCc2ccccc2)c(Br)cc1/C=C1\SC(=O)N(C)C1=O`, the IC50 was found to be 8.1 µM.
`C=CCN1C(=O)S/C(=C\c2cc(Br)c(OCC=C(C)C)cc2OC)C1=O`: the IC50 worked out at 17 µM.
`COc1cc(O)c(Br)cc1/C=C1\SC(=O)NC1=O`: the IC50 turned out to be 11.3 µM.
In the case of `CCCCOc1cc(OC)c(/C=C2\SC(=O)N(C(C)C)C2=O)cc1Br`, the IC50 is 9.7 µM.
Regarding `CCCCOc1cc(OC)c(/C=C2\SC(=O)N(CCCC)C2=O)cc1Br`, the IC50 is > 30 µM.
`COc1cc(OCc2ccccc2)c(Br)cc1/C=C1\SC(=O)NC1=O`: the IC50 came out at 7.6 µM.
As to `C=CCc1cc(/C=C2\SC(=O)N(CC=C)C2=O)c(OC)cc1OC1CCCCO1` (centres undefined), the IC50 is > 30 µM.
As for `COc1cc(OCC=C(C)C)c(Br)cc1/C=C1\SC(=O)N(Cc2ccccc2)C1=O`, the concentration for half-maximal inhibition (IC50) worked out at 10.3 µM.
Turning to `CCCCOc1cc(OC)c(/C=C2\SC(=O)NC2=O)cc1Br`, the IC50 amounted to 4.9 µM.
`COc1cc(OCC=C(C)C)c(Br)cc1/C=C1\SC(=O)NC1=O`: the IC50 is 5.3 µM.
In the case of `C=CCc1cc(/C=C2\SC(=O)N(CC=C(C)C)C2=O)c(OC)cc1OC1CCCCO1` (centres undefined), the IC50 amounted to 22.7 µM.
With `C=CCc1cc(/C=C2\SC(=O)N(C(C)C)C2=O)c(OC)cc1O` the figure was 6.4 µM; with `C=CCOc1cc(OC)c(/C=C2\SC(=O)NC2=O)cc1Br`, 8.1 µM.
With `CCCCOc1cc(OC)c(/C=C2\SC(=O)N(Cc3ccccc3)C2=O)cc1Br`, the IC50 is 6.6 µM.
With `C=CCc1cc(/C=C2\SC(=O)N(C(C)C)C2=O)c(OC)cc1OC1CCCCO1` (centres undefined) the figure was > 30 µM.
Take `C=CCc1cc(/C=C2\SC(=O)N(CC=C)C2=O)c(OC)cc1O`: the IC50 is > 30 µM.
`C=CCc1cc(/C=C2\SC(=O)N(CC=C(C)C)C2=O)c(OC)cc1O`: the IC50 was found to be 12 µM.
Consider `C=CCc1cc(/C=C2\SC(=O)N(CCCC)C2=O)c(OC)cc1O`, for which the IC50 worked out at 9.6 µM.
In the case of `C=CCc1cc(/C=C2\SC(=O)N(Cc3ccccc3)C2=O)c(OC)cc1OC1CCCCO1` (centres undefined), the IC50 was > 30 µM.
In the case of `COc1cc(O)ccc1/C=C1\SC(=O)NC1=O` it was 29.8 µM.
On to `C=CCc1cc(/C=C2\SC(=O)N(C)C2=O)c(OC)cc1O`, for which the IC50 was > 30 µM.

The values above are taken from ChEMBL document CHEMBL3351993, “Design, synthesis and docking study of 5-(substituted benzylidene)thiazolidine-2,4-dione derivatives as inhibitors of protein tyrosine phosphatase 1B” (Bioorg Med Chem Lett, 2014).
